Data from patent publication US20160166581A1 (priority 2014, published 2016).
“And” between values parts separate entries of the source, which are not always exact repeats. Identical values can stand only once.

Assays:
[1] = tested on: feline diabetic subjects; assay: Glucose Tolerance Test/Felines (ipGTT); type: in vivo, cat
Description: Glucose Tolerance Test/Felines. Four feline diabetic subjects (male, age 5-7 years) with newly diagnosed DM (diabetes). […] These 4 cats are subjected to intraperitoneal injection of 2 grams/kg glucose. (ipGTT). Blood glucose levels are obtained via Cephalic iv. catheter at 30 and 60 minutes.

[2] = tested on: horses with black walnut extract induced laminitis; assay: Black walnut extract induced laminitis, treatment with donepezil; type: in vivo, horse
Description: Three domestic horses, average age 26, are corralled in close proximity to a Black Walnut tree with exposed roots and debris from black walnuts shells, including leaves. The weight of the horses is 1100-1200 lbs. Horses are quartered in a 24×36 square foot area with a Black Walnut tree within the confined area.
The horses are evaluated continuously after 6 hours of exposure to remove them from exposure to the black walnut extract once symptoms occur.
Subsequent doses are 50 mg on Day #3-7. Horses are given Timothy hay and water, but no other medicinal or mechanical interventions.
The same 3 horses are used in similar exposure design, as in the original experiment to induce laminitis. […] The dose is tapered to 50 mg orally on Days #3 through #7.

[3] = tested on: obese domestic cats with diabetes
Description: Five obese domestic cats with diabetes (average weight 14.2 lbs.) are on glargine insulin for glycemic control. […] All cats are being treated with glargine insulin in bid dosing schedule. […] Over a 14 day period morning blood glucose levels (prior to feeding) are recorded.

[4] = tested on: cats with stage 3 and 4 renal disease; assay: Feline renal disease, serum creatinine pre and post treatment; type: in vivo, cat; set-up: Serum creatinine post treatment: unit not given here
Excerpt: This example measures feline renal disease. […] The average weight of the domestic cats was approximately 6 lbs.

[5] = 4 cats, 1.25 mg daily for 4 weeks
[6] = individual cats #1-#4, donepezil 1.25 mg daily for 4 weeks
[7] = individual cats #1-#4, donepezil 1.25 mg daily for 4 weeks, 2 gm/kg glucose ip
[8] = after repeat exposure and treatment
[9] = first exposure, 3 horses, 100 mg orally Day 1-2, 50 mg Day 3-7
[10] = repeat exposure, same 3 horses, 100 mg Day 1-2, 50 mg Days 3-7

`COc1cc2c(cc1OC)C(=O)C(CC1CCN(Cc3ccccc3)CC1)C2` (centres unmarked) [donepezil] was tested, and the “30 minutes blood glucose levels on average less than before treatment” value [1, 5] was “approximately 24%”, the “60 minute GTT on average less than without treatment” value [1, 5] was 42% and the “Glucose tolerance (in words)” value ([1]; 4 weeks prior to ipGTT testing, versus same subjects before treatment) was “improved glucose tolerance”. The “Decrease of 30 minute ipGTT blood glucose versus before treatment” value [1, 6] was 29% and 22% (2×) and 25%, the “Decrease of 60 minute ipGTT blood glucose versus before treatment” value [1, 6] was 42% and 39% and 41% and 46% and the “Blood glucose at 30 minutes in ipGTT” value [1, 7] was 269 mg/dL and 292 mg/dL and 278 mg/dL and 304 mg/dL. For the same compound, the “Blood glucose at 60 minutes in ipGTT” value [1, 7] was 152 mg/dL and 164 mg/dL and 145 mg/dL and 147 mg/dL, the “Gait (horse movements)” value [2, 8] was “no abnormalities” and the “Lasting lameness or constitutional symptoms” value [2, 8] was “No observable lasting lameness or constitutional symptoms”. The “Systemic symptoms after day #7” value ([2]; first exposure, 3 horses) was “No systemic symptoms are noted”, the “All subjects appear normal by” value [2, 9] was no more than 7 days and the “Normal activity noted as early as” value [2, 9] was 5 days. For the same compound, the “Warmth, posturing and trembling resolved by” value [2, 9] was no more than 3 days, the “Resolution of symptoms and normal movements completed by” value [2, 10] was no more than 7 days and the “Resolution of symptoms and normal movements observed at” value [2, 10] was 5 days. The “Dose of glargine insulin decreased to” value ([3]; #2 Cat, from 3 u. bid, secondary to low morning blood glucose) was 2 units, the “Morning blood glucose levels (prior to feeding) during treatment” value ([3]; individual diabetic cats #1-#5 on glargine insulin, 1.25 mg donepezil orally daily, 14 day period) was 88 to 113 mg/dL and 105 to 128 mg/dL and 96 to 117 mg/dL and the “Improvement of creatinine in six cats” value ([4]; donepezil 2.5 mg daily over 4 week period) was “approximately 56%”. The “Serum creatinine post treatment” value ([4]; individual cats 1-6, stage 3 or 4 renal disease, donepezil 2.5 mg daily for 4 weeks) was 1.8 and 2.6 and 2.0 and 1.9 and 2.5 and 2.3 and the “Decrease of serum creatinine post versus pre treatment” value ([4]; individual cats 1-6, donepezil 2.5 mg daily for 4 weeks) was 49% and 53% and 45% and 60% and 65% and 62%.
